Data as given in patent publication US20240248078A1, “Compositions For and Methods of Evaluating Gap Junction Formation and Function” (Duke University, priority 2021, published 2024).

Experiments:
Assay type in all cases: cell-based, human
HEK 293FT cells = assay: Flow enabled tracking of connexosomes in HEK 293FT cells (FETCH); details: for homotypic FETCH score (docking): homotypic pairing of fluorescent C-terminal fusion constructs, Q2/(Q1+Q2+Q3); for heterotypic FETCH score when paired with Cx43: co-plated with cells expressing Cx43
Protocol: FETCH analysis is fundamentally a two-component system. To complete FETCH analysis, replica multi-well plates were transfected with either of the two components being evaluated. The media of transfected wells was changed 16-18 hrs post-transfection and cells were trypsinized and experimental counterparts were combined at ˜20 hrs post-transfection. The entirety of combined samples were then plated onto new, 10 μg/mL Fibronectin coated wells of the same size, resulting in hyperdensity and over confluency. Following co-plating, samples were incubated for ˜20 hr-24 hrs, at which point samples were trypsinized, resuspended in phosphate buffered saline with 10 U/mL DNAse and fixed with paraformaldehyde (f/c of 1.5%). Co-plated samples in 96 well plates were resuspended to a final volume of ˜150 μL, samples from 24-well plates were resuspended to a final volume of ˜600 μL.
Flow cytometry data was collected on either a BD FACSCanto II (2-color experiments and high-throughput 96-well plates; 488 nm and 633 nm lasers), which utilizes the BD FACSDiVa software. Samples were analyzed in two selection gates prior to their fluorescence evaluation. First, presumable HEK cells were identified by evaluating sample forward vs side scatter area. Next, single cells were selected by evaluating cells that maintained a linear correlation of forward scatter height to forward scatter area. Finally, the fluorescence profiles of each sample were generated.
Each FETCH experiment produces “*.fcs” files that contain all the channel data for fluorescence in the sample. The automated pipeline loads these files, extracts FSC-A, SSC-A, and FSC-H. Depending on the machine used, green channel was loaded as 1-A or as FITC-A. For the red channel, both APC-A (RFP670) with PE-A (mApple) can be used or 5-A(RFP670) can be used. Next, the code produces two matrices containing SSC-A with FSC-A, and FSC-A with FSC-H, respectively.
The first gate is drawn on the FSC-A vs SSC-A axes to exclude cellular debris which clusters in the lower left corner and the cells that are saturating the laser (at the max of both axes). On an FSC-A vs SSC-A plot, the cellular debris usually is smoothly transitioning into the population of intact cells, therefore a Gaussian kernel density estimator with the estimator bandwidth selection defined by the Scott's Rule is used to draw contours around the data in SSC-A vs FSC-A matrix. Next, a set of heuristics was used to determine which of the contour lines should be used to define the first gate. Specifically, cellular debris usually clusters below 25000 on both axes, so any contour that includes values at or below is excluded. Similarly, any contour within a 1000 of the maximum value of each axis is also excluded. Of the remaining contours, the largest one is chosen, and an oval equation is fitted to the points defining that contour to attenuate occasional protrusions of the contour that tap into cellular debris population in rare cases. The fitted oval becomes the first gate.
For all the elements inside of the first gate, a second gate was drawn in the axis of FSC-A and FSC-H to exclude non-single cells. For the second gate, a line was fit to all the points. Next, for each point, a norm to the fit line was found and a standard deviation of all such norms was found. Using this standard deviation, a second gate 4 standard deviations away from the fitted line was defined on both sides and excluded all the points outside of this gate.
Upon applying the first two gates, the data was finally plotted with the red fluorophore on the y axis and the green fluorophore on the x axis. If a sample contained more than two fluorophores, then the last gate was drawn for each possible combination. Since some readings are below zero due to fluorescence compensation, all the data points were shifted by the smallest value along both axes and then a natural log of fluorescence levels was taken. […]

293 cells = assay: FETCH in 293 cell line; details: compared with HEK 293FT
Text: (§1) For FETCH to be successful, cells must overexpress Cx-FP constructs to a sufficient degree to promote observable fluorescence exchange.

HeLa cells = assay: FETCH in HeLa cell line; details: compared with HEK 293FT
Text: as §1

“Cx31.1: human connexin 31.1 (GJB5), C-terminal fluorescent fusion protein” was tested, and the “homotypic FETCH score (docking)” value (HEK 293FT cells) was “failed to generate a significant homotypic FETCH score”.

With “Cx31.3: human connexin 31.3, C-terminal fluorescent fusion protein” the “homotypic FETCH score (docking)” value (HEK 293FT cells) was “failed to generate a significant homotypic FETCH score”.

For “Cx31.9: human connexin 31.9 (GJD3), C-terminal fluorescent fusion protein”, the “homotypic FETCH score (docking)” value (HEK 293FT cells) was “failed to generate a significant homotypic FETCH score”.

In the case of “Cx32: human connexin 32 (GJB1), C-terminal fluorescent fusion protein”, the “heterotypic FETCH score when paired with Cx43” value (“heterotypic FETCH score” for short) (HEK 293FT cells) is reported as “failed to dock” and the “homotypic FETCH score (docking)” value (HEK 293FT cells) is reported as “significantly positive”.

“Cx36: human connexin 36 (GJD2), C-terminal fluorescent fusion protein” was tested, and the “heterotypic FETCH score” value (HEK 293FT cells) was “failed to dock” and the “homotypic FETCH score (docking)” value (HEK 293FT cells) was “significantly positive”.

For “Cx43-ELs-Cx26: chimeric construct of the intracellular and transmembrane regions of Cx43 and the ELs of Cx26”, the “FETCH docking when paired with Cx26” value (HEK 293FT cells; co-plated with cells expressing Cx26) was “preferentially docked” and the “heterotypic FETCH score” value (HEK 293FT cells) was “not Cx43”.

In the case of “Cx43: human connexin 43 (GJA1), expressed as C-terminal fluorescent fusion protein”, the FETCH score (293 cells) is reported as “substantially lower”, the “homotypic FETCH score (docking)” value (HEK 293FT cells) is reported as “significantly positive” and the FETCH score (HeLa cells) is reported as “substantially lower”.

For “Cx45: human connexin 45 (GJC1), C-terminal fluorescent fusion protein”, the “heterotypic FETCH score” value (HEK 293FT cells) was “positive” and the “homotypic FETCH score (docking)” value (HEK 293FT cells) was “significantly positive”.

For “Cx46: human connexin 46 (GJA3), C-terminal fluorescent fusion protein”, the “homotypic FETCH score (docking)” value (HEK 293FT cells) was “failed to generate a significant homotypic FETCH score”.

With “Cx50: human connexin 50 (GJA8), C-terminal fluorescent fusion protein” the “homotypic FETCH score (docking)” value (HEK 293FT cells) was “failed to generate a significant homotypic FETCH score”.

For “Cx59: human connexin 59 (GJA9), C-terminal fluorescent fusion protein”, the “homotypic FETCH score (docking)” value (HEK 293FT cells) was “failed to generate a significant homotypic FETCH score”.

For “Cx62: human connexin 62 (GJA10), C-terminal fluorescent fusion protein”, the “homotypic FETCH score (docking)” value (HEK 293FT cells) was “failed to generate a significant homotypic FETCH score”.

In the case of “D190A: random alanine scanning mutation of the Cx43 extracellular loops”, the “homotypic FETCH score (docking)” value (HEK 293FT cells) is reported as “retained their ability to homotypically dock”.

“S182A: random alanine scanning mutation of the Cx43 extracellular loops” was tested, and the “homotypic FETCH score (docking)” value (HEK 293FT cells) was “retained their ability to homotypically dock”.
